We go through 1 molecule from patent US10689341B2, “Small molecule N-(alpha-peroxy) indole compounds and methods of use” (King Abdullah University of Science and Technology, priority 2016, dated 2020).

SMILES strings stand for the structures.

A short description of the data set: Stability in CDC13 in the NMR tube at room temperature. The data set is classed as physicochemical. The conditions noted are these: decomposed in one day.

Take `COc1ccc2c(c1)c(CCNC(C)=O)cn2C(CC(C)C)OOC(C)(C)CC(OC(C)=O)OC(C)=O` (stereo not shown) [Compound 7]: the “stability in CDC13” value is “not be stable”.
